Laboratory results from ChEMBL document CHEMBL3046119, “QSAR evaluation of cyanohydrins' fumigation toxicity to house fly (Musca domestica) and lesser grain borer (Rhyzopertha dominica)” (2002).

Legend:
Musca domestica = test: Insecticidal activity against Musca domestica (house fly) after 24 hr; format: functional
Rhyzopertha dominica = test: Insecticidal activity against Rhyzopertha dominica after 24 hr; format: functional

Compound	LC50 (Musca domestica) [µM]	LC50 (Rhyzopertha dominica) [µM]
C=CC(C#N)OC (stereo unspecified)	4.22	9.06
C=CC(O)C#N (stereo unspecified)	0.67	4.45
CC(O)(C#N)CF (stereo unspecified)	0.87	3.2
C=CC(C#N)OC(C)=O (stereo unspecified) [1-CYANOALLYL ACETATE]	2.08	2.96
C=CC(C#N)OC(=O)C(C)(C)C (stereo unspecified) [1-CYANOALLYL PIVALATE]	8.19	14.4
C=CC(C#N)OC(=O)CC (stereo unspecified) [1-CYANOALLYL PROPIONATE]	4.74	5.03
N#CC(O)C1CC1 (stereo unspecified) [CYCLOPROPYLCARBOXALDEHYDE]	1.54	4.12
CC(O)(C#N)C1CC1 (stereo unspecified) [CYCLOPROPYLMETHYLKETONE CYANOHYDRIN]	1.35	3.6
CC=C(Cl)Cl [DICHLOROPROPENE]	8.11	49.3
COP(=O)(OC)OC=C(Cl)Cl [DICHLORVOS]	0.05	1.31
CC(C)(O)C#N [DIMETHYLKETONE CYANOHYDRIN]	0.82	4.7
CCC(C)(O)C#N (stereo unspecified) [METHYLETHYL KETONE CYANOHYDRIN]	0.91	4.14
C=CC(C)(O)C#N (stereo unspecified) [METHYLVINYL KETONE CYANOHYDRIN]	2.27	9.47
